Several values for one entry are separate records, joined by “and”; a condition that tells them apart may be missing. Equal values may be shown once.
What was measured:
[1] = test system: tyrosinase activity in α‐MSH‐stimulated B16F10 cells; assay: Tyrosinase zymography (L-DOPA staining) in α-MSH-stimulated B16F10 cells; assay type: cell-based, Murine; settings: Mus musculus, B16-F10; α-MSH (100 nM)-stimulated B16F10 cells, 48 h, 25 μM; read-out: inhibition of tyrosinase activity / melanogenesis
Description: ImageJ software was used to determine the intensity of bands.
A day after seeding the B16F10 cells (6×10^4 cells/mL) the culture medium was substituted by fresh one supplemented with 100 nM α‐MSH.
After incubation for 48 h, cells were washed and lysed using phosphate buffer (25 mM, pH 6.8) containing Triton X‐100 (1 %) and phenylmethyl‐sulfonyl fluoride (0.1 mM). Cellular lysates were centrifugated at 13000 rpm for 20 min at 4 °C. The protein content was determined by Bradford method and BSA was used as standard.
SDS‐polyacrylamide gel electrophoresis was used to resolve the protein extracts previously mixed with 10 mM Tris‐HCl buffer, pH 7.0, containing 1 % SDS, without mercaptoethanol.
After running, gel was rinsed in phosphate buffer (0.1 M, pH 7.0) and equilibrated for 30 min twice. […] Tyrosinase activity was visualized in the gel as dark melanin‐containing bands

[2] = biological target: T1, TYR from Agaricus bisporus (AbTYR) (Agaricus bisporus, UniProt C7FF04); assay: Inhibition of diphenolase activity of AbTYR (L-DOPA as substrate); settings: IC50 [μM]±SD, inhibition of diphenolase activity of AbTYR, L-DOPA substrate, three replicates;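 also: absorbance measured spectrophotometrically with L-DOPA as substrate, inhibition expressed as percent relative to control sample, IC50 interpolated from dose-response curves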
Description: (§1) absorbance was measured after 60 or 1 min of incubation time in the reaction mixture containing
(§2) L-tyrosine or L-DOPA, respectively. The inhibitory activity was expressed as inhibition percentage
(§3) calculated by interpolation of the dose-response curves. Kojic acid [5-hydroxy-2-(hydroxymethyl)-
(§4) 4H-pyran-4-one], a fungal secondary metabolite used as skin whitening agent, was employed as a
(§5) positive standard (10–50 μM). A spectrophotometer (Agilent Cary 60 UV-Vis Spectrophotometer)
(§6) The inhibition kinetics on the tyrosinase were studied using Lineweaver-Burk double reciprocal
(§7) plots. The reaction mixture consisted of four different concentrations of the substrate L-DOPA
(§8) (0.6–5 mM), and mushroom tyrosinase in phosphate buffer (0.05 M, pH 6.8). Three different
(§9) concentrations were used for the analysis. Preincubation and measurement time were the same
(§10) as discussed in mushroom tyrosinase inhibition assay. The Michaelis-Menten constant (Km) and
(§11) maximal velocity (Vmax) of tyrosinase were determined by Lineweaver-Burk plots.

[3] = biological target: T1, TYR from Agaricus bisporus (AbTYR); assay: Kinetic analysis of AbTYR inhibition (Lineweaver-Burk plots, L-DOPA); settings: L-DOPA 0.6–5 mM, three inhibitor concentrations, phosphate buffer pH 6.8
Description: Kinetics studies were performed in presence of three different concentrations of selected inhibitors, L‐DOPA (0.6–5 mM) and AbTYR in phosphate buffer (0.05 M, pH 6.8).
as §1, §2, §3, §4, §5, §6, §7, §8, §9, §10, §11

B16F10 cells = assay: Cell viability assay (MTT); assay type: cell-based, Murine; settings: 48 h, until a concentration of 10 μM
Description: Murine melanoma B16F10 cells (CRL‐6475) were cultured as previous reported.[17]
3‐(4,5‐Dimethylthiazol‐2‐yl)‐2,5‐diphenyltetrazolium bromide (MTT) was used to measure the cells viability. Cells were seeded in 96‐well plates for 24 hours with a density of 5x10^3 for well. Cells were then treated for 48 h with compounds (ranging from 4 μM to 100 μM). After incubation at 37 °C and 5 % of CO2, 100 μL of MTT reagent were added to the cells and incubated 3 h at 37 °C. After adding DMSO the absorbance was determined at 560 nm. The amount of living cells in treated samples relative to untreated controls (100 %) provided the cell viability. The mean value and standard deviation (SD) were calculated from triplicate experiments.
different concentrations of compounds (4-100 μM) and their viability was evaluated by MTT assay. Data
represent mean ± SD of triplicate experiments.

[4] = ABTS radical scavenging antioxidant assay; settings: mean ± SD of three independent experiments
Description: ABTS [2,20‐azinobis‐(3‐ethylbenzothiazoline‐6‐sulfonic acid)] assay was used to determine the total free radical‐scavenging capacity of compounds. 6‐hydroxy‐2,5,7,8‐tetramethylchromane‐2‐carboxylic acid (Trolox) was used as the reference antioxidant.[15]
The ABTS⋅^+ method is based on the capacity of an antioxidant to scavenge the free ABTS⋅^+. To produce this radical an aqueous mixture of 7 mM ABTS with 2.45 mM potassium persulfate was required.
The ABTS solution was kept in the dark, at room temperature, for 24 h before use. The ABTS⋅^+ mixture was diluted, and each compound (10 μL) was added to solution. After 1 min of incubation the absorbance was recorded at 734 nm. Afterwards the decrease in A734 was calculated and referred to the Trolox standard curve. Antioxidant activity was expressed as concentration of the compound to give a 50 % reduction in the original absorbance (EC50).

[5] = biological target: T1, TYR from Agaricus bisporus (AbTYR); assay: Inhibition of monophenolase activity of AbTYR (L-Tyr as substrate); assay type: biochemical; set-up: purchased Sigma Chemical Co. (St. Louis, MO, USA); settings: 40 μM (Figure S69)
Description: Mushroom tyrosinase inhibition assay
6.8). […] Subsequently, 0.05 mL of
L-tyrosine or L-DOPA, respectively.
respect to control sample.
positive standard (10–50 μM).
was used for absorbance measurements.
Kinetic analysis of the tyrosinase inhibition

T1 sequence (C7FF04 1-392 limits assumed): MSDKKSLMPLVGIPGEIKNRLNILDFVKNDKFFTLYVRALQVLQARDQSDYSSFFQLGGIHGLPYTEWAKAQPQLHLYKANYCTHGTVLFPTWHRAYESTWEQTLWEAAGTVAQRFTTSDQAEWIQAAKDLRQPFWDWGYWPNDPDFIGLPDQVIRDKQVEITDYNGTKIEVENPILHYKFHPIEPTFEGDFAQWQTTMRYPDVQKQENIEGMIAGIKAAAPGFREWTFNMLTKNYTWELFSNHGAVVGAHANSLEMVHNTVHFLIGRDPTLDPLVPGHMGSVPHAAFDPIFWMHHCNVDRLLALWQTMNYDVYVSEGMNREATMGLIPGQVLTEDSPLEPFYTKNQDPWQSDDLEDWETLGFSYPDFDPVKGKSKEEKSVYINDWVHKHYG

Structure (SMILES) | IC50 [2] | melting point | other results
O=c1cc(CO)occ1O [KA, kojic acid, reference compound] |  |  | inhibition at 25 µM [1]: 17%
Oc1ccc(N2CCNCC2)cc1 [compound 1, 4‐(1‐piperazinyl)phenol] | 28.9 ± 4.9 µM |  | mechanism of inhibition of AbTYR [3]: competitive inhibitor
O=C(c1ccccc1)N1CCN(c2ccc(O)cc2)CC1 [compound 2, (4‐(4‐Hydroxyphenyl)piperazin‐1‐yl)(phenyl)methanone] | 73.2 ± 3.5 µM |  | 
O=C(c1ccc(-c2ccccc2)cc1)N1CCN(c2ccc(O)cc2)CC1 [compound 3, (4‐(4‐Hydroxyphenyl)piperazin‐1‐yl)(biphenyl‐4‐yl)methanone] | 128 ± 4.1 µM |  | 
O=C(c1ccccc1F)N1CCN(c2ccc(O)cc2)CC1 [compound 4, (4‐(4‐Hydroxyphenyl)piperazin‐1‐yl)(2‐fluorophenyl)methanone] | 15.2 ± 0.9 µM | 142 to 143 °C | 
O=C(c1cccc(F)c1)N1CCN(c2ccc(O)cc2)CC1 [compound 5, (4‐(4‐Hydroxyphenyl)piperazin‐1‐yl)(3‐fluorophenyl)methanone] | 22.6 ± 1.3 µM | 145 to 146 °C | 
O=C(c1ccccc1Cl)N1CCN(c2ccc(O)cc2)CC1 [compound 7, (4‐(4‐Hydroxyphenyl)piperazin‐1‐yl)(2‐chlorophenyl)methanone] | < 5 µM and 2.6 µM | 169 to 170 °C | cytotoxic effect (MTT) (B16F10 cells): no cytotoxic effect; EC50 [4]: 13.2 ± 0.5 µM; inhibitory effect on monophenolase activity of AbTYR [5]: active inhibitors
O=C(c1cccc(Cl)c1)N1CCN(c2ccc(O)cc2)CC1 [compound 8, (4‐(4‐Hydroxyphenyl)piperazin‐1‐yl)(3‐chlorophenyl)methanone] | 9 ± 1 µM | 138 to 139 °C | 
O=C(c1ccc(Cl)cc1)N1CCN(c2ccc(O)cc2)CC1 [compound 9, (4‐(4‐Hydroxyphenyl)piperazin‐1‐yl)(4‐chlorophenyl)methanone] | 8.9 ± 0.9 µM |  | 
O=C(c1ccccc1Br)N1CCN(c2ccc(O)cc2)CC1 [compound 11, (4‐(4‐Hydroxyphenyl)piperazin‐1‐yl)(2‐bromophenyl)methanone] | < 5 µM and 4.5 µM | 180 to 181 °C | cytotoxic effect (MTT) (B16F10 cells): no cytotoxic effect; EC50 [4]: 13.2 ± 1.1 µM; inhibitory effect on monophenolase activity of AbTYR [5]: active inhibitors
O=C(c1cccc(Br)c1)N1CCN(c2ccc(O)cc2)CC1 [compound 12, (4‐(4‐Hydroxyphenyl)piperazin‐1‐yl)(3‐bromophenyl)methanone] | 16.4 ± 1.9 µM |  | 
O=C(c1ccc(Br)cc1)N1CCN(c2ccc(O)cc2)CC1 [compound 13, (4‐(4‐Hydroxyphenyl)piperazin‐1‐yl)(4‐bromophenyl)methanone] | 39.6 ± 0.9 µM | 190 to 191 °C | 
Cc1ccccc1C(=O)N1CCN(c2ccc(O)cc2)CC1 [compound 14, [4‐(4‐Hydroxyphenyl)piperazin‐1‐yl](2‐methylphenyl)methanone] | 29.9 ± 2 µM | 127 to 128 °C | 
Cc1cccc(C(=O)N2CCN(c3ccc(O)cc3)CC2)c1 [compound 15, [4‐(4‐Hydroxyphenyl)piperazin‐1‐yl](3‐methylphenyl)methanone] | 31.7 ± 0.5 µM | 155 to 156 °C | 
Cc1ccc(C(=O)N2CCN(c3ccc(O)cc3)CC2)cc1 [compound 16, [4‐(4‐Hydroxyphenyl)piperazin‐1‐yl](4‐methylphenyl)methanone] | 34.4 ± 0.5 µM | 162 to 163 °C | 
O=C(c1ccccc1C(F)(F)F)N1CCN(c2ccc(O)cc2)CC1 [compound 17, (4‐(4‐Hydroxyphenyl)piperazin‐1‐yl)(2‐(trifluoromethyl)phenyl)methanone] | 4.6 ± 0.3 µM | 152 to 153 °C | cytotoxic effect (MTT) (B16F10 cells): no cytotoxic effect; EC50 [4]: 9 ± 0.9 µM; inhibitory effect on monophenolase activity of AbTYR [5]: active inhibitors
O=C(c1cccc(C(F)(F)F)c1)N1CCN(c2ccc(O)cc2)CC1 [compound 18, (4‐(4‐Hydroxyphenyl)piperazin‐1‐yl)(3‐(trifluoromethyl)phenyl)methanone] | 5.5 ± 0.2 µM | 127 to 128 °C | 

Structure (SMILES) | IC50 [2] | melting point | other results
O=C(c1ccc(C(F)(F)F)cc1)N1CCN(c2ccc(O)cc2)CC1 [compound 19, (4‐(4‐Hydroxyphenyl)piperazin‐1‐yl)(4‐(trifluoromethyl)phenyl)methanone] | 35.1 ± 0.5 µM | 201 to 202 °C | 
O=C(c1ccc(C(F)(F)F)cc1C(F)(F)F)N1CCN(c2ccc(O)cc2)CC1 [compound 20, (4‐(4‐Hydroxyphenyl)piperazin‐1‐yl)(2,4‐bis(trifluoromethyl)phenyl)methanone] | 18.2 ± 2.4 µM | 194 to 195 °C | 
COc1cccc(C(=O)N2CCN(c3ccc(O)cc3)CC2)c1 [compound 22, [4‐(4‐Hydroxyphenyl)piperazin‐1‐yl](3‐methoxyphenyl)methanone] | 9.8 ± 0.4 µM |  | 
COc1ccc(C(=O)N2CCN(c3ccc(O)cc3)CC2)cc1 [compound 23, [4‐(4‐Hydroxyphenyl)piperazin‐1‐yl](4‐methoxyphenyl)methanone] | 14.9 ± 0.7 µM | 177 to 178 °C | 
COc1ccc(C(=O)N2CCN(c3ccc(O)cc3)CC2)c(OC)c1 [compound 24, [4‐(4‐Hydroxyphenyl)piperazin‐1‐yl](2,4‐dimethoxyphenyl)methanone] | 16.7 ± 2 µM |  | 
O=C(c1ccc(F)cc1F)N1CCN(c2ccc(O)cc2)CC1 [compound 25, (4‐(4‐Hydroxyphenyl)piperazin‐1‐yl)(2,4‐difluorophenyl)methanone] | 17.5 ± 1.3 µM | 180 to 181 °C | 
O=C(c1ccc(Br)cc1Br)N1CCN(c2ccc(O)cc2)CC1 [compound 26, (4‐(4‐Hydroxyphenyl)piperazin‐1‐yl)(2,4‐dibromophenyl)methanone] | 9.5 ± 0.3 µM | 176 to 177 °C | 
Cc1ccc(C(=O)N2CCN(c3ccc(O)cc3)CC2)c(C)c1 [compound 27, [4‐(4‐Hydroxyphenyl)piperazin‐1‐yl](2,4‐dimethylphenyl)methanone] | 33.7 ± 0.7 µM | 164 to 165 °C | 
O=C(c1ccccc1[N+](=O)[O-])N1CCN(c2ccc(O)cc2)CC1 [compound 28, (4‐(4‐hydroxyphenyl)piperazin‐1‐yl)(2‐nitrophenyl)methanone] | 7.4 ± 0.7 µM | 184 to 185 °C | 
O=C(c1cccc([N+](=O)[O-])c1)N1CCN(c2ccc(O)cc2)CC1 [compound 29, (4‐(4‐Hydroxyphenyl)piperazin‐1‐yl)(3‐nitrophenyl)methanone] | 21.8 ± 1.2 µM |  | 
O=C(c1ccc([N+](=O)[O-])cc1)N1CCN(c2ccc(O)cc2)CC1 [compound 30, (4‐(4‐Hydroxyphenyl)piperazin‐1‐yl)(4‐nitrophenyl)methanone] | 23.2 ± 1.5 µM | 157 to 158 °C | 
O=C(c1ccc([N+](=O)[O-])cc1[N+](=O)[O-])N1CCN(c2ccc(O)cc2)CC1 [compound 31, (4‐(4‐Hydroxyphenyl)piperazin‐1‐yl)(2,4‐dinitrophenyl)methanone] | 7.6 ± 0.05 µM | 225 to 226 °C | 
Nc1ccccc1C(=O)N1CCN(c2ccc(O)cc2)CC1 [compound 32, (4‐(4‐Hydroxyphenyl)piperazin‐1‐yl)(2‐aminophenyl)methanone] | 66.4 ± 2.1 µM |  | 
Nc1cccc(C(=O)N2CCN(c3ccc(O)cc3)CC2)c1 [compound 33, (4‐(4‐Hydroxyphenyl)piperazin‐1‐yl)(3‐aminophenyl)methanone] | 35.7 ± 1.05 µM | 95 to 96 °C | 
Nc1ccc(C(=O)N2CCN(c3ccc(O)cc3)CC2)cc1 [compound 34, (4‐(4‐Hydroxyphenyl)piperazin‐1‐yl)(4‐aminophenyl)methanone] | 43.9 ± 3.4 µM | 94 to 95 °C | 
Nc1ccc(C(=O)N2CCN(c3ccc(O)cc3)CC2)c(N)c1 [compound 35, (4‐(4‐Hydroxyphenyl)piperazin‐1‐yl)(2,4‐diaminophenyl)methanone] | 82.4 ± 1.1 µM | 80 to 81 °C | 

— PMC9828493, “Design, Synthesis, and in Vitro Evaluation of 4‐(4‐Hydroxyphenyl)piperazine‐Based Compounds Targeting Tyrosinase” (Chemmedchem, 2022)
